# Results from publication PMC6271011, “Synthesis, Leishmanicidal and Cytotoxic Activity of Triclosan-Chalcone, Triclosan-Chromone and Triclosan-Coumarin Hybrids” (Molecules, 2014).
# “And” between values parts separate entries of the source, which are not always exact repeats. Equal values may be shown once. Read-outs that look alike come from different tables or passages of the source.
# Key:
# [1] = tested on: intracellular amastigotes of L. (V) panamensis; assay: Leishmanicidal activity against intracellular amastigotes (GFP, flow cytometry, 72 h); assay type: cell-based, Leishmania (Viannia) panamensis; details: for Leishmanicidal activity % Inhibition: intracellular amastigotes; for SI (Selectivity Index = LC50/EC50): LC50 U-937 / EC50 intracellular amastigotes
# Description: The leishmanicidal activity of compounds was evaluated on intracellular amastigotes of L. panamensis transfected with the green fluorescent protein gene (MHOM/CO/87/UA140pIR-GFP). Effect of each compound was determined according to the inhibition of the infection evidenced by both decrease of the infected cells and decrease of intracellular parasite load. Briefly, U-937 human cells at a concentration of 3 × 10^5 cells/mL in RPMI 1640 and 0.1 μg/mL of PMA (phorbol-12-myristate-13-acetate) were infected with promastigotes in stationary phase growth in a 15:1 parasites per cell ratio and incubated at 34 °C and 5% CO2 for 3 h. Cells were washed two times with phosphate buffer solution (PBS) to eliminate not internalized parasites. Fresh RPMI 1640 1 mL was added and cells were incubated during 24 h to guarantee multiplication of intracellular parasites.
# After 24 h of infection, the culture medium was replaced by fresh culture medium containing each compound at concentrations of 20 μg/mL. After 72 h, the inhibition of the infection progress was determined. Cells were removed from the bottom plate with a trypsin/EDTA (250 mg) solution. Recovered cells were centrifuged at 1100 rpm during 10 min at 4 °C, the supernatant was discarded and cells were washed with 1 mL of cold PBS and centrifuged at 1100 rpm during 10 min at 4 °C. Supernatant was discarded and cells were suspended in 500 μL of PBS and analyzed by flow cytometry (FC 500MPL, Cytomics, Brea, CA, USA) counting 20.000 events. All determinations for each compound and standards were carried out in triplicate, in two isolated experiments. Activity of tested compounds was carried out in parallel with infection progress in culture medium alone and in culture medium with amphotericin B 0.05 μg/mL and meglumine antimoniate (10.0 μg/mL) as control drugs. […] The infected cells were exposed against each concentration of synthesized compounds during 72 h, then, cells were removed and tested by flow cytometry as described before.
# Antileishmanial activity was determined according to percentage of infected cells and parasite load obtained for each experimental condition by the cytometer. Percentage of infected cells was determined as the number of positive events by double fluorescence (green for parasites and red for cells) using dotplot analysis. On the other hand, the parasitic load was determined by analysis of mean fluorescence intensity (MFI).
# The parasitemia inhibition was calculated by Equation (2), where the MFI of control, corresponds to 100% of parasitemia. In turn, inhibition percentage corresponds to 100% Parasitemia.
# The selectivity index (SI), was calculated by dividing the cytotoxic activity and the leishmanicidal activity using the following formula: SI = CL50/CE50.
# [2] = tested on: intracellular amastigotes of L. (V) panamensis; assay: as above; assay type: cell-based, Leishmania (Viannia) panamensis; details: for inhibition at 20 µg/mL: read-out: Leishmanicidal activity % Inhibition; for EC50: intracellular amastigotes in U-937 cells
# in vitro = details: human
# Description: (§1) The cytotoxic activity of the compounds was assessed based on the viability of the human promonocytic cell line U937 (ATCC CRL-1593.2^TM) evaluated by the MTT (3-(4,5-dimethylthiazol-2-yl)-2,5-diphenyltetrazolium bromide) assay. In brief, cells were grown in 96-well cell-culture dishes at a concentration of 100,000 cells/mL in RPMI-1640 supplemented with 10% FBS and the corresponding concentrations of the compounds, starting at 200 µg/mL in duplicate. The cells were incubated at 37 °C with 5% CO2 for 72 h in the presence of the compounds, and then the effect was determined using the MTT assay, incubating at 37 °C for 3 h. The effect of the compounds was determined by measuring the activity of the mitochondrial dehydrogenase by adding 10 µL/well of MTT solution (0.5 mg/mL) and incubating at 37 °C for 3 h. The reaction was stopped by adding a 50% isopropanol solution with 10% sodium dodecyl sulfate for 30 min. Cell viability was determined based on the quantity of formazan produced, according to the optical density (O.D) obtained at 570 nm in a Bio-Rad (Hercules, CA, USA) ELISA instrument. Cultured cells in the absence of extracts were used as viability controls, while meglumine antimoniate and amphotericin B were used as cytotoxicity controls. Assays were performed twice with three replicates per each concentration tested.
# (§2) Cytotoxicity was determined according to viability and mortality percentages obtained for each isolated experiment (compounds, amphotericin B, meglumine antimoniate and culture medium alone). The results were expressed as 50 lethal concentrations (LC50), that corresponds to the concentration necessary to eliminate 50% of cells, calculated by Probit analysis. Percentage of viability was calculated by Equation (1), where the optical density (O.D) of control, corresponds to 100% of viability. In turn, mortality percentage corresponds to 100% viability: % Viability = (O.D Exposed cells)/(O.D Control cells) × 100 (1)
# (§3) The degree of toxicity was established according to the LC50 value using the following scale: highly toxic: LC50 < 50 μg/mL, toxic: LC50 > 50 to < 100 μg/mL; moderately toxic: LC50 > 100 to < 200 μg/mL and potentially non-toxic: LC50 > 200 μg/mL.
# [3] = tested on: axenic and intracellular amastigotes of Leishmania panamensis; parameters: method as in doi:10.1007/s00044-011-9886-8; details: cited from earlier work
# [4] = tested on: human promonocytic cell line U937; assay: in vitro; details: U-937 cells, MTT, 72 h, Lethal Concentration 50
# Description: as §1, §2, §3
# L. major = tested on: L. major; parameters: method as in PMID 15558191; details: against L. major; read-out: 50% inhibitory concentration (IC50), growth inhibition; cited from earlier work
# [5] = at 20 µg/mL, intracellular amastigotes
Molecule,"inhibition at 20 µg/mL [2, 5]",CC50 at 72 h (in vitro),SI (Selectivity Index = LC50/EC50) [1],EC50 [2],other results
"Cc1cc(=O)oc2cc(OCCCOc3cc(Cl)ccc3Oc3ccc(Cl)cc3Cl)ccc12 [Compound 16, 7-{3-[5-Chloro-2-(2,4-dichlorophenoxy)phenoxy]propoxy}-4-methyl-2H-chromen-2-one]",< 50%,> 200 µg/mL and > 397 µM,–,–,"Leishmanicidal activity % Inhibition ([1]; at 20 µg/mL, 72 h): 34.0 ± 0.3%"
"COc1ccc(/C=C/C(=O)c2ccc(OCCCCOc3cc(Cl)ccc3Oc3ccc(Cl)cc3Cl)cc2)cc1OC [Compound 8, (2E)-1-(4-{4-[5-Chloro-2-(2,4-dichlorophenoxy)phenoxy]butoxy}phenyl)-3-(3,4-dimethoxyphenyl) prop-2-en-1-one]",67.8 ± 19%,> 200 µg/mL and > 319 µM,>19.6,10.2 µg/mL and 16.3 µM,–
"O=c1ccoc2cc(OCCCCCOc3cc(Cl)ccc3Oc3ccc(Cl)cc3Cl)ccc12 [Compound 27, 7-({5-[5-Chloro-2-(2,4-dichlorophenoxy)phenoxy]pentyl}oxy)-4H-chromen-4-one]",75.5 ± 1.5%,25.8 µg/mL and 49.8 µM,1.6,16 µg/mL and 30.9 µM,–
"COc1ccc(/C=C/C(=O)c2ccc(OCCCOc3cc(Cl)ccc3Oc3ccc(Cl)cc3Cl)cc2)cc1OC [Compound 7, (2E)-1-(4-{3-[5-Chloro-2-(2,4-dichlorophenoxy)phenoxy]propoxy}phenyl)-3-(3,4-dimethoxyphenyl) prop-2-en-1-one]",67.4 ± 17.2%,> 200 µg/mL and > 327 µM,>21.3,9.4 µg/mL and 15.4 µM,–
"C[C@@H]1[C@H](O)[C@@H](C)/C=C/C=C/C=C/C=C/C=C/C=C/C=C/[C@H](O[C@@H]2O[C@H](C)[C@@H](O)[C@H](N)[C@@H]2O)C[C@@H]2O[C@](O)(C[C@@H](O)C[C@@H](O)[C@H](O)CC[C@@H](O)C[C@@H](O)CC(=O)O[C@H]1C)C[C@H](O)[C@H]2C(=O)O [Amphotericin B, reference compound]",–,42.1 µg/mL and 45.6 µM,–,0.06 µg/mL and 100 nM,"inhibition at 0.05 µg/mL ([2]; Dose employed: 0.05 µg/mL, intracellular amastigotes): 69.1 ± 1.3%"
"O=c1ccoc2cc(OCCCCOc3cc(Cl)ccc3Oc3ccc(Cl)cc3Cl)ccc12 [Compound 26, 7-{4-[5-Chloro-2-(2,4-dichlorophenoxy)phenoxy]butoxy}-4H-chromen-4-one]",91 ± 9.6%,15.8 µg/mL and 31.3 µM,2.1,7.5 µg/mL and 14.9 µM,–
"O=c1ccoc2cc(OCCCCCCCCOc3cc(Cl)ccc3Oc3ccc(Cl)cc3Cl)ccc12 [Compound 28, 7-({8-[5-Chloro-2-(2,4-dichlorophenoxy)phenoxy]octyl}oxy)-4H-chromen-4-one]",28.4 ± 2.1%,80 µg/mL and 143 µM,–,–,–
"Cc1cc(=O)oc2cc(OCCCCCOc3cc(Cl)ccc3Oc3ccc(Cl)cc3Cl)ccc12 [Compound 18, 7-({5-[5-Chloro-2-(2,4-dichlorophenoxy)phenoxy]pentyl}oxy)-4-methyl-2H-chromen-2-one]",–,> 200 µg/mL and > 376 µM,–,–,–
"O=c1ccoc2cc(OCCCOc3cc(Cl)ccc3Oc3ccc(Cl)cc3Cl)ccc12 [Compound 25, 7-{3-[5-Chloro-2-(2,4-dichlorophenoxy)phenoxy]propoxy}-4H-chromen-4-one]",94.4 ± 2.9%,6.4 µg/mL and 13.1 µM,2.4,2.7 µg/mL and 5.5 µM,–
"O=c1ccoc2cc(O)ccc12 [7-Hydroxychromone (20), 7-hydroxychromone, reference compound]",14.8 ± 0.9%,–,–,–,–
Oc1cc(Cl)ccc1Oc1ccc(Cl)cc1Cl [Triclosan],–,–,1.3,–,"EC50 ([1]; U-937, 72 h, read-out: Leishmanicidal activity EC50): 18.3 µg/mL and 63.2 µM; inhibition at 20 µg/mL [2]: 61.8 ± 5.5%; effective concentration (EC50) [3]: < 24 mg/L"
"Cc1cc(=O)oc2cc(O)ccc12 [7-Hydroxy-4-methylcoumarin (11), 7-hydroxy-4-methylcoumarin, reference compound]",15.3 ± 0.1%,–,–,–,–
"COc1ccc(/C=C/C(=O)c2ccc(OCCCCCCCCOc3cc(Cl)ccc3Oc3ccc(Cl)cc3Cl)cc2)cc1OC [Compound 10, (2E)-1-[4-({8-[5-Chloro-2-(2,4-dichlorophenoxy)phenoxy]octyl}oxy)phenyl]-3-(3,4-dimethoxyphenyl) prop-2-en-1-one]",–,> 200 µg/mL and > 293 µM,–,–,–
"COc1ccc(/C=C/C(=O)c2ccc(OCCCCCOc3cc(Cl)ccc3Oc3ccc(Cl)cc3Cl)cc2)cc1OC [Compound 9, (2E)-1-[4-({5-[5-Chloro-2-(2,4-dichlorophenoxy)phenoxy]pentyl}oxy)phenyl]-3-(3,4-imethoxyphenyl) prop-2-en-1-one]",69.5 ± 8.6%,> 200 µg/mL and > 311 µM,>14.8,13.5 µg/mL and 21.1 µM,–
"meglumine antimoniate [Sb(V), reference compound]",–,–,–,–,"Leishmanicidal activity % Inhibition ([1]; Dose employed: 10 µg/mL, 72 h): 79.4 ± 2.1 ^h %; Cytotoxicity LC50 [4]: 495.9 ± 55.6 mg/L"
"Cc1cc(=O)oc2cc(OCCCCCCCCOc3cc(Cl)ccc3Oc3ccc(Cl)cc3Cl)ccc12 [Compound 19, 7-({8-[5-Chloro-2-(2,4-dichlorophenoxy)phenoxy]octyl}oxy)-4-methyl-2H-chromen-2-one]",–,> 200 µg/mL and > 348 µM,–,–,–
"3,4-dimethoxy-4'-hydroxychalcone [3,4-Dimethoxy-4'-hydroxychalcone (6), reference compound]",–,–,–,–,"Leishmanicidal activity % Inhibition ([1]; at 20 µg/mL, 72 h): 52.4 ± 6.5%; Leishmanicidal activity EC50 ([1]; intracellular amastigotes in U-937 cells, 72 h): 20.03 ± 1.4 mg/L; EC50 ([1]; intracellular amastigotes in U-937 cells, 72 h, read-out: Leishmanicidal activity EC50 (converted)): 70.5 µM; Cytotoxicity LC50 [4]: 13.9 ± 1.4 mg/L; CC50 ([4]; read-out: Cytotoxicity LC50): 48.9 µM"
"Cc1cc(=O)oc2cc(OCCCCOc3cc(Cl)ccc3Oc3ccc(Cl)cc3Cl)ccc12 [Compound 17, 7-{4-[5-Chloro-2-(2,4-dichlorophenoxy)phenoxy]butoxy}-4-methyl-2H-chromen-2-one]",57.1 ± 11.5%,> 200 µg/mL and > 386 µM,>7.3,27.5 µg/mL and 53.1 µM,–
"CC(C)=CCC/C(C)=C/COc1ccc2ccc(=O)oc2c1 [Aurapten, 7-geranyloxycoumarin]",–,–,–,–,IC50 (L. major): 30 µM
